Measured values from patent US20190046469A1, “COMPOSITIONS AND METHODS FOR TREATING MOOD DISORDERS OR SKIN DISEASE OR DAMAGE” (priority 2012, published 2019).

Columns and labels:
[1] = tested on: OXTR (Homo sapiens oxytocin receptor mRNA, NM_000916); experiment: Full thickness tissue DNA microarray screening, OXTR gene expression; format: cell-based
Excerpt: (§1) DNA microarrays were used to screen xanthohumol for changes in the expression of thousands of different genes. DNA microarrays are extremely powerful tools that allow users to analyze changes in gene expression by monitoring changes in the messenger ribonucleic acid (“mRNA”) of hundreds to thousands of genes in a single experiment. All cells function by using their genes to make protein products. This process starts by making an mRNA copy of the gene through a process called transcription. The mRNA copy is then translated into a protein that plays a functional role within the cell or the cell's environment. Since the process of gene expression is highly regulated, the amount of mRNA can be a good indicator of the level of activity for a specific gene. With the introduction of DNA microarrays, researchers can now rapidly obtain a much more global view of what is happening inside of a cell since the results of one or two array experiments can potentially generate data on changes in gene expression across the entire known human genome.
(§2) This would result in a ratio of 1. If a treatment increases the expression of a gene, then the median intensity of the feature would be greater in the scan from the red laser than the green, resulting in a ration that is greater than 1. […] These broader ranges are a more conservative judging criterion and account for possible sources of variation in fluorescence intensity that are not associated with the treatment.
(§3) In addition to the information on active ingredients and raw materials that the DNA microarray can provide, the arrays can be used to better characterize the mechanisms of action related to certain therapeutic categories. The array data also allows the verification that a gene of interest is expressed in a certain model before running an experiment. The following tables provide the data based on the ratio of means after 50 μL of a xanthohumol liquid formulation with a concentration of 5 mg/ml xanthohumol was used in the following experiment. RNA was isolated from the tissues for subsequent analysis via DNA microarrays.

[2] = tested on: OXT (Homo sapiens oxytocin/neurophysin I prepropeptide mRNA, NM_000915); experiment: Full thickness tissue DNA microarray screening, OXT gene expression; format: cell-based
Excerpt: as §1, §2, §3

[3] = 50 μL of xanthohumol liquid formulation, 5 mg/ml, full thickness tissue, >=1.3 up-regulated, <=0.7 down-regulated
[4] = 50 μL of xanthohumol liquid formulation, 5 mg/ml, green laser scan
[5] = 50 μL of xanthohumol liquid formulation, 5 mg/ml, red laser scan (treated)
[6] = ratio of means above 1.3 = up-regulated

Q: How did the “Ratio of Means (OXTR)” value [1, 3] turn out when COc1cc(O)c(CC=C(C)C)c(O)c1C(=O)/C=C/c1ccc(O)cc1 [xanthohumol] was run?
A: The value was 3.5.

Q: And the “F532 Median (OXTR)” value [1, 4]?
A: Its value is 43.

Q: What about the “F635 Median (OXTR)” value [1, 5] of the same molecule?
A: The value was 53.

Q: And the “up-regulation of OXTR” value ([1]; DNA microarray)?
A: Its value is “greater than 50%”.

Q: What about the “regulation of OXTR gene (in words)” value [1, 6] of the same molecule?
A: Its value is “significantly up-regulated”.

Q: What about the “Ratio of Means (OXT)” value [2, 3] of the same molecule?
A: Its value is 2.488.

Q: What about the “F532 Median (OXT)” value [2, 4] of the same molecule?
A: Its value is 78.

Q: What about the “F635 Median (OXT)” value [2, 5] of the same molecule?
A: The value was 171.

Q: And the “regulation of OXT gene (in words)” value [2, 6]?
A: Its value is “significantly up-regulated”.
